From patent US20260248127A1, “IMPROVED PESTICIDAL COMPOSITIONS AND PEST CONTROL METHODS” (priority 2022, published 2026)
≈ marks a conversion by molar mass, not a printed value. Where “and” joins values, the source holds several entries; their conditions need not be identical. Identical values can stand only once. Like-named read-outs stand apart in the source and are kept apart here.

Tests used:
[1] = tested on: Aedes aegypti LVP (SP-susceptible) strain L3 larvae; assay: Larval mortality-time assay, LVP strain; type: in vivo; details: table row says LC50 LVP dose, text LC90 dose
Text: Results represent n=3 biological replicates. Lethal time (LT50) of post topical exposure to a Lethal Concentration (LC90) dose is shown in comparison to SP and the technical grade synthetic pyrethroid, Deltamethrin.

[2] = tested on: Aedes aegypti PRS (SP-resistant) strain L3 larvae; details: data from a previous study, cited from earlier work
[3] = tested on: Aedes aegypti LVP (SP-susceptible) strain L3 larvae; details: data from a previous study, cited from earlier work
[4] = tested on: Musca domestica CAR21 (insecticide susceptible) strain; assay: Topical synergist 24-hour mortality assay, CAR21 house flies; type: in vivo; details: for % Dead / Alive / Dead: CAR21, topical doses; for % Dead: 24-hour mortality; for maximum sublethal dose: for both strains (CAR21, KS17); for Alive / Dead: number of flies, pooled of 4 replicates, 24-hour
[5] = tested on: Musca domestica KS17 (insecticide resistant) strain; assay: Topical synergist 24-hour mortality assay, KS17 house flies; type: in vivo; details: topical doses; for % Dead: 24-hour mortality; for Alive / Dead: number of flies, pooled of 4 replicates, 24-hour
[6] = tested on: Aedes aegypti PRS (SP-resistant) strain L3 larvae; assay: Larval dose-mortality (dose response) assay, PRS strain; type: in vivo; details: for LC50: Aedes aegypti, PRS L3 larvae, read-out: Lethal Concentration (LC50)
Text: (§1) Results represent n=3 biological replicates.

[7] = tested on: Aedes aegypti LVP (SP-susceptible) strain L3 larvae; assay: Larval dose-mortality (dose response) assay, LVP strain; type: in vivo; details: for LC50: Aedes aegypti, read-out: Lethal Concentration (LC50)
Text: as §1

[8] = tested on: Aedes aegypti PRS (SP-resistant) strain 3-5 day old adults; assay: Adult dose-mortality assay, PRS strain; type: in vivo; details: for LC50: Aedes aegypti, PRS adults
[9] = tested on: Aedes aegypti LVP (SP-susceptible) strain 3-5 day old adults; assay: Adult dose-mortality assay, LVP strain; type: in vivo; details: for LC50: Aedes aegypti, read-out: Lethal Dose (LC50)
[10] = tested on: Aedes aegypti PRS (SP-resistant) strain L3 larvae; assay: Qcide combinations larval dose-mortality assay, PRS strain; type: in vivo
Method: (§2) Results represent n=3 biological replicates. […] The Synergistic Ratio (SR) and P-value are shown. Mosquito mortality is shown for A and B: LVP at 24 and 48 hours. […] Mosquito mortality is shown for A and B: PRS at 24 and 48 hours.
(§3) Results represent n=3 biological replicates. […] The Synergistic Ratio (SR) and P-value are shown.

[11] = tested on: Aedes aegypti LVP (SP-susceptible) strain L3 larvae; assay: Qcide combinations larval dose-mortality assay, LVP strain; type: in vivo
Method: as §2, §3

[12] = 24 h, Permethrin alone (Table 4)
[13] = 24 h, Permethrin alone (Table 5)
[14] = 48 h, Permethrin alone (Table 4)
[15] = 48 h, Permethrin alone (Table 5)

For `CC1(C)[C@H](C(=O)O[C@H](C#N)c2cccc(Oc3ccccc3)c2)[C@@H]1C=C(Br)Br` [Deltamethrin], the “Lethal Time (LT50)” value [1] was 5.6 h and 5.5 h.

For `CC(C)C(=O)C1C(=O)C(C)(C)C(=O)C(C)(C)C1=O` [Flavesone, flavesone], the “Lethal Concentration (LC50)” value ([2]; 24 hours, listed as flavesone) is listed as 39 µg/mL, the “Lethal Concentration (LC50)” value ([2]; 24 hours) is listed as 38.7 µg/mL and the “Lethal Concentration (LC50)” value ([2]; 48 hours) is listed as 37.1 µg/mL. For the same compound, the “Lethal Concentration (LC50)” value ([2]; 72 hours) was 37.1 µg/mL, the “Lethal Concentration (LC50)” value ([3]; 24 hours, listed as flavesone) was 41 µg/mL and the “Lethal Concentration (LC50)” value ([3]; 24 hours) was 40.9 µg/mL. For the same compound, the “Lethal Concentration (LC50)” value ([3]; 48 hours) was 40.5 µg/mL, the “Lethal Concentration (LC50)” value ([3]; 72 hours) was 39.7 µg/mL and the “% Dead” value [4] was 0.0%. It also gave a maximum sublethal dose ([4]; topical) of 0.3 % v/v, an Alive [4] of 80 and a Dead [4] of 0.

For `CCCCOCCOCCOCc1cc2c(cc1CCC)OCO2` [PBO, piperonyl butoxide], the “% Dead” value [5] was 3.9%, the Alive [5] was 74 and the Dead [5] was 3. For the same compound, the “% Dead” value [4] was 0.0%, the maximum sublethal dose ([4]; topical) was 10 μg/fly and the Alive [4] was 80. For the same compound, the Dead [4] was 0.

`CC1(C)C(C=C(Cl)Cl)C1C(=O)OCc1cccc(Oc2ccccc2)c1` (stereo not drawn) [Permethrin, permethrin] gave an LC50 ([6]; 24 hours post exposure) of 0.7 µg/mL (≈ 1.79 µM), an LC50 ([6]; 48 hours post exposure) of 0.6 µg/mL (≈ 1.53 µM) and an LC50 ([6]; 72 hours post exposure) of 0.6 µg/mL (≈ 1.53 µM). For the same compound, the “resistance of PRS strain larvae as compared to LVP strain” value ([6]; L3 larvae, under assay conditions) was “approx. 25 fold”, the “Lethal Concentration (LC50)” value ([7]; 24 hours post exposure) was 0.0259 µg/mL and the LC50 ([7]; 24 h, 24 hours post exposure) was 0.026 µg/mL (≈ 0.0664 µM). The LC50 ([7]; 48 h, 48 hours post exposure) was 0.0252 µg/mL (≈ 0.0644 µM), the LC50 ([7]; 72 h, 72 hours post exposure) was 0.0214 µg/mL (≈ 0.0547 µM) and the “% Dead” value [5] was 3.8%. For the same compound, the Alive [5] was 77, the Dead [5] was 3 and the LC50 ([8]; 24 hours post exposure, read-out: Lethal Dose (LC50)) was 130 µg/mL (≈ 332 µM). The LC50 ([8]; 24 hours, read-out: LC50) was 130 µg/mL (≈ 332 µM), the LC50 ([8]; 48 hours post exposure, read-out: Lethal Dose (LC50)) was 120 µg/mL (≈ 307 µM) and the “resistance of PRS strain adults as compared to LVP” value ([8]; adults, under assay conditions) was “approximately 240 fold”. The “% Dead” value [4] was 7.5%, the LD50 dose ([4]; CAR21 strain, topical) was 12 ng/fly and the Alive [4] was 74. For the same compound, the Dead [4] was 6, the “Lethal Dose (LC50)” value ([9]; 24 hours post exposure) was 0.5429 µg/mL and the LC50 ([9]; 24 h, 24 hours post exposure) was 0.543 µg/mL (≈ 1.39 µM). For the same compound, the LC50 ([9]; 48 h, 48 hours post exposure) was 0.505 µg/mL (≈ 1.29 µM), the LC50 [10, 12] was 2.1 µg/mL and the LC50 [10, 13] was 1.21 µg/mL. The LC50 [10, 14] was 1.3 µg/mL, the LC50 [10, 15] was 0.87 µg/mL and the LC50 [11, 12] was 0.0205 µg/mL. It also gave an LC50 [11, 13] of 0.0237 µg/mL, an LC50 [11, 14] of 0.0181 µg/mL and an LC50 [11, 15] of 0.0217 µg/mL. The “Lethal Time (LT50)” value [1] was 5.5 h and 5.6 h.
